The text below walks through data of BindingDB's records for doi:10.7270/Q2DV1H7P (Burnham Center For Chemical Genomics, 2009).

The experiment deals with Runt-related transcription factor 1 (Homo sapiens, UniProt Q01196). Kind of experiment: disruptors of Runt domain/CBFb-SMMHC interaction – biochemical, FRET, Cerulean-Runt, Venus-CBFb-SMMHC, uHTS, primary screen (AID 1434). The following applies: pH 7.4; 23 °C.
Runt-related transcription factor 1, sequence (Q01196 whole entry, the tested form may be a part): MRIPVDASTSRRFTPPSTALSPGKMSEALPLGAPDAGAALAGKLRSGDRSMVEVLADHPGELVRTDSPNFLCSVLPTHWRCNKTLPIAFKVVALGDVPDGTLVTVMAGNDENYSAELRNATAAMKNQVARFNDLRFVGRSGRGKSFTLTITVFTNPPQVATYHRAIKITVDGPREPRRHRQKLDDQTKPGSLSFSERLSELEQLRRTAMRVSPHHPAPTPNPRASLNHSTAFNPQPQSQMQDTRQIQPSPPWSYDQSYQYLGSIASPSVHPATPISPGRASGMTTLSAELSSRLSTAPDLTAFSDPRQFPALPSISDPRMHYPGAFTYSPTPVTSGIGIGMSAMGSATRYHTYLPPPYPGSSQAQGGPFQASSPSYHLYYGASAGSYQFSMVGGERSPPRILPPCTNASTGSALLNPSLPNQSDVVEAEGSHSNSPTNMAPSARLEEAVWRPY
The compound `CN1c2ccsc2C(=O)C(C(=S)Nc2ccc(F)c(Cl)c2)S1(=O)=O` (stereo not drawn) came in with an IC50 of 100 µM. Compound `Cc1ccc(C)c(-c2csc(N=NC(C)c3cc4c(ccc5ccccc54)oc3=O)n2)c1` (stereo not drawn) [MLS000559785] showed an IC50 of 10.1 µM. The value for `Cc1cc2c(c(=O)n1CCc1ccccc1)C(c1ccco1)C(C#N)C(=N)O2` (stereo not drawn) [SMR000149533] was 100 µM.
